What was measured:
KCC2 mRNA = test: Secondary screen: KCC2 RT-qPCR in primary mouse neurons; assay type: cell-based; settings: Natural Compounds; rank score
Method: The primary screen encompassed three levels of LUC measurements. The first level of screening yielded a total of 137 compounds with cut-off RLU>125% LUC activity. These 137 compounds were subject to second round of screening, which was carried out in duplicate independent assays to yield the top 103 compounds sorted for highest RLU. The 103 compounds were then subjected to a third round of screening carried out in duplicate independent assays to yield the top 40 compounds which were again ranked. The best 22 of these 40 compounds (ranked for highest RLU activity) were subjected to secondary screening: Cultured neurons were treated with the 22 compounds; RT-qPCR and Clomeleon imaging methodologies (Yeo et al., 2009, J Neurosci 29:14652-14662) were used to determine effects of compounds on KCC2 mRNA expression and [Cl—]i, respectively. Each compound was ranked based on composite scores from primary and secondary screening.
Total RNA was isolated from cultured cell samples using Directzol RNA miniprep kit (ZymoResearch). The protocol includes DNAse digestion to exclude genomic DNA from preparations. Total RNA (1 μg) was reverse transcribed using oligo primers (dT) and SuperScriptIII first-strand synthesis kit (Invitrogen). Gene expression was assessed by quantitative real-time PCR using 2×SYBR Green Master Mix (Qiagen) and a three-step cycling protocol (anneal at 60° C./elongate at 72° C., denature at 95° C.). Specificity of primers was verified by dissociation/melting curve for the amplicons when using SYBR Green as a detector. All reactions were performed in triplicates. The amount of target messenger RNA (mRNA) in the experimental group relative to that in the control was determined from the resulting fluorescence and threshold values (Ct) using the ΔΔCt method. βIII-tubulin was used as housekeeping gene.
oligodT-initiated reverse transcription of 1 μg total RNA, DNA-se treated, was subjected to RT-qPCR using primers specific for KCC2 for rat and KCC2 for human sequences, normalized for neuronal βIII-tubulin, as previously described (Yeo et al., 2009, J Neurosci 29:14652-14662). For cultured neurons, total RNA was extracted from pelleted cells, and for spinal cord tissue it was extracted from microdissected lumbar spinal cord dorsal horn.
To identify KCC2 gene expression enhancing compounds, cultured primary cortical neurons were cultured from KCC2-luciferase(LUC)-knockin (KCC2-LUCki) mice (Liedtke et al., 2013, Small 9:1066-1075; Yeo et al., 2013, Proc Natl Acad Sci USA 110:4315-4320) and used LUC metrics as readout for activity of the proximal KCC2 promoter (2.5 kB (Yeo et al., 2009, J Neurosci 29:14652-14662)), which drives LUC in this mouse transgenic line. A Z′ factor of 0.94 was obtained. This strategy will not select for long-range enhancers of KCC2 gene expression that act outside the 2.5 kB core KCC2 promoter. 1057 compounds, contained in two NCI libraries (FIG. 1), related to inhibition of growth of malignantly transformed cells were screened. Iterative screening followed by measurements of KCC2 mRNA (RT-qPCR) and intracellular chloride ([Cl—]i), using clomeleon chloride indicator protein (Kuner and Augustine, 2000, Neuron 27:447-459; Yeo et al., 2009, J Neurosci 29:14652-14662), led to decreasing numbers of confirmed and re-confirmed hits, and 4 “winner” compounds were selected (FIG. 1 and Table 3).

ß-catenin (ß-cat) = test: Phosphoproteomics in rat primary cortical neurons, ß-cat; assay type: cell-based; settings: 1 μM KP
Method: Cultured rat primary cortical neurons were treated with either vehicle DMSO (0.1%) or 1 μM KP for 1 h/24 h. Cells were lysed in non-detergent-containing buffer (Tris.Cl pH8 50 mM, NaCl 150 mM, 0.5% Phosphatase Inhibitor (Pierce #88667) and Protease Inhibitor (Roche #11836153001)). 500 μL was removed and solid urea was added to a final concentration of 8M. Samples were sonicated for further solubilization. After clearing of insoluble material by centrifugation, protein concentration was measured by Bradford assay. 250 μg of total protein was removed from each sample and solubilization buffer was added to normalize all samples to 0.93 μg/μL protein. Samples were then spiked with bovine alpha-casein to 30 fmol/μg of total protein. Samples were reduced with 10 mM DTT at 32° C. for 45 min and then alkylated with 20 mM iodoacetamide at room temperature for 30 min. […]
TiO2 Enrichment. […] After cleanup using a C18 STAGE tip, and resuspension in 2% acetonitrile, 0.1% TFA, 10 mM citric acid samples were quantified.
Quantitative analysis of Phosphopeptide Enriched Samples. Quantitative LC-MS/MS was performed in singlicate (4 uL=33% of the total sample each injection) for phosphopeptide-enriched samples using a nanoAcquity UPLC system (Waters Corp) coupled to a Thermo QExactive Plus high resolution accurate mass tandem mass spectrometer (Thermo) via a nanoelectrospray ionization source. […]

O=C1Cc2c([nH]c3ccc(Br)cc23)-c2ccccc2N1 [kenpaullone, 9-bromo-7,12-dihydro-indolo [3,2-d] [1]benzazepin-6(5H)-one]
RT-QPCR Score (triplicates) (KCC2 mRNA): 2
differential phosphorylation of ß-cat (ß-catenin (ß-cat)): not significantly differentially phosphorylated

Reference: US20220281930A1, “COMPOSITIONS AND METHODS FOR THE TREATMENT OF PATHOLOGICAL PAIN AND ITCH” (DUKE UNIVERSITY, priority 2019, published 2022)
